According to ChEMBL document CHEMBL4177539, “Discovery of N-((3R,4R)-4-Fluoro-1-(6-((3-methoxy-1-methyl-1H-pyrazol-4-yl)amino)-9-methyl-9H-purin-2-yl)pyrrolidine-3-yl)acrylamide (PF-06747775) through Structure-Based Drug Design: A High Affinity Irreversible Inhibitor Targeting Oncogenic EGFR Mutants with Selectivity over Wild-Type EGFR” (J Med Chem, 2017):

How the values were obtained:
Homo sapiens = species on record: Homo sapiens; assay: Selectivity index, ratio of IC50 for wild-type EGFR autophosphorylation in human A549 cells to IC50 for EGFR T790M/L858R double mutant autophosphorylation in human H1975 cells; format: cell-based
physchem [1] = conditions: octanol/water
in vitro [2] = conditions: dog, MDCK
Hepatocyte = conditions: human, hepatocytes, 1 µM
in vitro [3] = conditions: human, liver microsomes
[4] = target: Epidermal growth factor receptor (Homo sapiens, UniProt P00533, EX19DEL/T790M)
Chain of Epidermal growth factor receptor (Homo sapiens, UniProt P00533, EX19DEL/T790M) (P00533 whole entry, looked up, stated change not applied): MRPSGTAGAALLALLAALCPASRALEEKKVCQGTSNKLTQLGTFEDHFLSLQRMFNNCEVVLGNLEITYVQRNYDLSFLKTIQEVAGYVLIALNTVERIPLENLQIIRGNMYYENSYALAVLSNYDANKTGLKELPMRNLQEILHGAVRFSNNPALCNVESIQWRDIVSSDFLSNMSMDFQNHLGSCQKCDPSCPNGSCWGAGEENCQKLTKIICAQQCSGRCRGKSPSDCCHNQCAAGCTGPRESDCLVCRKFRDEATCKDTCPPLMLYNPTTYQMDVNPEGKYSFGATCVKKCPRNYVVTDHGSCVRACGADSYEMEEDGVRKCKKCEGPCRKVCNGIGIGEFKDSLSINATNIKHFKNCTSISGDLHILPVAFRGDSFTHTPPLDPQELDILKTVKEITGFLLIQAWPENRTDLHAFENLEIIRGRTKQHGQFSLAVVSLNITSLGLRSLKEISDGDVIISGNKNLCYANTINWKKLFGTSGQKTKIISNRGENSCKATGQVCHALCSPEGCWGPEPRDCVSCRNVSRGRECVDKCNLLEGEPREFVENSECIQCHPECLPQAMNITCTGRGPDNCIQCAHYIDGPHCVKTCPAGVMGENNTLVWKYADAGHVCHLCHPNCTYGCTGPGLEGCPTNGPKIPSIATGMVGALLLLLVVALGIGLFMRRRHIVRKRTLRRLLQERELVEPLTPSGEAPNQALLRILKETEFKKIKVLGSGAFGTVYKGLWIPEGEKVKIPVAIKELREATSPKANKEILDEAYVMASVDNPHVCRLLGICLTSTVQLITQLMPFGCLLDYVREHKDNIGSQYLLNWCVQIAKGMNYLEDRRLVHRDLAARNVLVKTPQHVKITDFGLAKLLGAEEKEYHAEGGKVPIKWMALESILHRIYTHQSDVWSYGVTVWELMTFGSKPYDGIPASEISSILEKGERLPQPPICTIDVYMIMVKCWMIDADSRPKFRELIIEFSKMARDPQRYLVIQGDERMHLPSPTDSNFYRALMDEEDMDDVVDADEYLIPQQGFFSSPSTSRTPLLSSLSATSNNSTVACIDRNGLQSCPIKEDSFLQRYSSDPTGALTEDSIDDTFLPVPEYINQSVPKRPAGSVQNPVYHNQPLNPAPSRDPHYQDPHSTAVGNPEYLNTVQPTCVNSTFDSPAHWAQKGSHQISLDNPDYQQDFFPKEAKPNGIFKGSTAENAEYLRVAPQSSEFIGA

[5] = target: Epidermal growth factor receptor (Homo sapiens, UniProt P00533)
Chain of Epidermal growth factor receptor (Homo sapiens, UniProt P00533) (P00533 whole entry): as the sequence (P00533 whole entry, looked up, stated change not applied) above

[6] = target: Epidermal growth factor receptor (Homo sapiens, UniProt P00533, EX19DEL)
Chain of Epidermal growth factor receptor (Homo sapiens, UniProt P00533, EX19DEL) (P00533 whole entry, looked up, stated change not applied): as above

physchem [7] = conditions: phosphate buffer with glutathione, pH 7.4

SMILES	logD (physchem [1])	Ratio IC50 (Homo sapiens)	also measured
C=CC(=O)N[C@H]1CCN(c2nc(Nc3ccc(N4CCN(C)CC4)cc3)c3ncn(C(C)C)c3n2)C1	2.2	15	
CC(C)C(CO)Nc1nc(Nc2ccc(N3CCNCC3)cc2)c2ncn(C(C)C)c2n1 (racemic)			Papp (in vitro [2]): 1.9 ×10⁻⁶ cm/s
C=CC(=O)Nc1cc2c(Nc3ccc(F)c(Cl)c3)ncnc2cc1OCCCN1CCOCC1 [CANERTINIB]			half-life at 2 h, 1 µM (physchem [7]): 21 min

Now from value to molecule, other results behind:

logD (physchem [1])	SMILES	Ratio IC50 (Homo sapiens)	also measured
2.2	C=CC(=O)N1C[C@@H]2CN(c3nc(Nc4cnn(C)c4)c4ncn(C(C)C)c4n3)C[C@@H]2C1	16	
2.3	C=CC(=O)N[C@H]1CCN(c2nc(Nc3cnn(C)c3)c3ncn(C(C)C)c3n2)C1	13	
2.6	C=CC(=O)N[C@@H]1CN(c2nc(Nc3cn(C)nc3OC)c3ncn(C(C)C)c3n2)C[C@H]1F		CLH (Hepatocyte): 23 µL/min/mg; microsomal CLint at […], 1 µM (in vitro [3]): 32 µL/min/mg; Papp (in vitro [2]): 18 ×10⁻⁶ cm/s
2.6	C=CC(=O)N[C@@H]1CN(c2nc(Nc3cn(C)nc3C)c3ncn(C(C)C)c3n2)C[C@H]1F	56	IC50 [4]: 4 nM; microsomal CLint at […], 1 µM (in vitro [3]): 30 µL/min/mg; IC50 [5]: 1450 nM; IC50 [6]: 16 nM
